# Data: patent US20200338028A1, “BENZENESULFONAMIDE DERIVATIVES AND METHOD FOR MODULATING LIPID RAFT” (Gongwin Biopharm Co., Ltd., priority 2017, published 2020)
# Entries after “also recorded” stand apart in the source; their conditions may differ.
# Columns and labels:
# PC-3 cells [1] = test: propidium iodide staining, cell cycle distribution by flow cytometry; format: cell-based, human; details: PC-3, 24 h, FIG. 2A
# Procedure: (§1) Flow cytometric analysis was performed as follows. Cells were harvested by trypsinization, fixed with 70% (v/v) alcohol at 4° C. for 30 min and washed with PBS. After centrifugation, the cells were incubated in phosphate-citric acid buffer (0.2 mol/l NaHPO4, 0.1 mol/l citric acid, pH 7.8) for 30 min at room temperature. The cells were then centrifuged and resuspended with 0.5 ml propidium iodide (PI) solution containing Triton X-100 (0.1% v/v), RNase (100 μg/ml) and PI (80 μg/ml). DNA content was analyzed with the FACScan and CellQuest software (Becton Dickinson, Mountain View, Calif., United States).
# DU-145 cells [2] = test: as above; format: cell-based, human; details: DU-145, 24 h, FIG. 2A
# Procedure: as §1
# [3] = test system: PC-3-derived cancer xenografts; test: in vivo anti-tumor xenograft model; parameters: species or system nude mice
# Procedure: In vivo anti-tumor study was performed as follows. PC-3-derived cancer xenografts in nude mice were used as an in vivo model. The nude mice were subcutaneously injected with PC-3 cells (10^7 cell/mouse). The tumors were measured every day. When the tumors reached a volume of 100 mm^3, the mice were divided into two groups (n=8-10), and compound treatment was initiated. p-TSA was dissolved in 15% 1-methyl-2-pyrrolidone (NMP). Vehicle (15% NMP) or p-TSA was given intraperitoneally every other day. The length (1) and width (w) of the tumor were measured, and tumor volume was calculated as lw^2/2. The protocols of the in vivo study were approved by the Animal Care and Use Committee at National Taiwan University. All animal procedures and protocols were approved by AAALAC-accredited facility. Data were presented as mean±standard error of the mean (SEM) for the indicated number of separate experiments. The statistical analysis was performed using one way analysis of variance (ANOVA) for multiple sample sets. Single comparisons of appropriate groups were done with Student's t-test. P-values less than 0.05 are statistically considered significant.
# The tumor xenograft in nude mice models after subcutaneously inoculated PC-3 cells was used to conduct in vivo efficacy evaluation of p-TSA. The operator was fully blinded to the experimental treatment. The initial intraperitoneal injection of 75 mg/kg p-TSA was given when the tumor reached a size of 100 mm^3 (p-TSA group 121±40 mm^3 v.s. control group 101±48 mm^3). First, the tumor growth inhibition treatment/control (T/C) ratio was used to quantify the treatment effect of p-TSA in the mouse xenograft model.
# PC-3 cells [4] = test: CFSE staining, flow cytometric proliferation index; format: cell-based, human; details: PC-3, 48 h
# Procedure: (§2) The anti-proliferative effect was further examined by CFSE staining. CFSE is a fluorescent cell staining dye for cell-tracking, and it was conjugated to intracellular proteins and was evenly inherited by divided cells after cell proliferation. Consequently, the fluorescence-staining was distributed to later generations of cells with the passage of time. The process for CFSE staining was performed as follows. CFSE was dissolved in DMSO to constitute a storage solution of 10 mM and was kept at −20° C. until use. The PC-3 and DU-145 cells were adjusted to a density of 10^6 cells/ml and were treated with CFSE at a final concentration of 10 μM in tubes. After incubation at 37° C. for 10 min, labeling was blocked by the addition of RPMI medium with 10% FBS. The tubes were placed on ice for 5 min and then washed. After centrifugation of the tubes, the cells were seeded in RPMI medium with 10% FCS in the absence or presence of p-TSA for 48 h at 37° C. under 5% CO2/95% air condition. The fluorescence intensity was determined by flow cytometric analysis. The cell proliferation was assessed by monitoring the decrease in label intensity in daughter cells. The proliferation index and the cell populations of parent or different generations were calculated by using Modfit LT Version 3.2 and WinList Version 5.0 software.
# DU-145 cells [5] = test: CFSE staining, flow cytometric proliferation index; format: cell-based, human; details: DU-145, 48 h
# Procedure: as §2
# PC-3 cells [6] = test: JC-1 staining, mitochondrial membrane potential; format: cell-based, human; details: PC-3, 24 h, JC-1, FIG. 2B
# Procedure: (§3) Mitochondria generate the majority of ATP to synthesize bioactive components such as proteins, lipids and nucleotides for cell growth and proliferation. The stress onto mitochondria and interference with ATP production have shown to induce cell cycle arrest. Measurement of mitochondrial membrane potential (ΔΨm) was performed as follows. JC-1, a mitochondrial dye staining mitochondria in living cells in a membrane potential-dependent fashion, was used to determine the mitochondrial membrane potential (ΔΨm). PC-3 and DU145 cells were treated with or without p-TSA. Thirty minutes before the termination of incubation, the cells were incubated with JC-1 (final concentration of 5 μM) at 37° C. for 30 min. The cells were finally harvested, and the accumulation of JC-1 was determined using flow cytometric analysis. […] An increase in the permeability of the outer mitochondrial membrane that leads to the release of apoptogenic factors is the key to cell apoptosis. Mitochondrial membrane permeability is directly controlled by Bcl-2 family of proteins.
# DU-145 cells [7] = test: JC-1 staining, mitochondrial membrane potential; format: cell-based, human; details: DU-145, 24 h, JC-1, FIG. 2B
# Procedure: as §3
smiles,measurement,setting,value
"Cc1ccc(S(N)(=O)=O)cc1 [p-TSA, para-toluenesulfonamide]",cell apoptosis,PC-3 cells [1],accelerated cell apoptosis
same,distribution of cell populations in cell cycle phases,PC-3 cells [1],accumulation of both PC-3 cells and DU-145 cells in G1 phase
same,cell apoptosis,DU-145 cells [2],accelerated cell apoptosis
same,distribution of cell populations in cell cycle phases,DU-145 cells [2],accumulation of both PC-3 cells and DU-145 cells in G1 phase
same,median tumor size,[3]; 75 mg/kg intraperitoneally,403 mm^3
same,tumor growth inhibition treatment/control (T/C) ratio,"[3]; 75 mg/kg intraperitoneally every other day, end of treatment, FIG. 7A",0.44
same,tumor growth rate,"[3]; 75 mg/kg intraperitoneally, FIG. 7B",16.8 mm^3/day
same,loss of body weight versus control group,"[3]; 75 mg/kg intraperitoneally, FIG. 7C",no significant between-group difference
same,inhibition by median tumor size,"[3]; 75 mg/kg intraperitoneally, versus 765 mm^3 in the control group",47%
same,inhibition of tumor growth rate,"[3]; 75 mg/kg intraperitoneally, versus control group 37.8 mm^3/day",56%
same,day on which the group reached a 20% loss of body weight,"[3]; 75 mg/kg intraperitoneally, control group 12th day",22 days
same,p-Akt expression in tumors,"[3]; six randomly selected tumors, FIG. 7D, listed as PTS",significant inhibitory effect; also recorded: significantly inhibited
same,proliferation index based on CFSE staining,PC-3 cells [4],concentration-dependent inhibition
same,proliferation index based on CFSE staining,DU-145 cells [5],concentration-dependent inhibition
same,mitochondrial membrane potential,PC-3 cells [6],concentration-dependent decrease
same,mitochondrial membrane potential,DU-145 cells [7],concentration-dependent decrease
